Assay results reported in patent US20130143929A1, “FUNGICIDAL IMIDAZOLES” (EI DU PONT DE NEMOURS AND COMPANY, priority 2010, published 2013).
Marks after values point to notes of the source that are not given here.

Tests used:
Type in all cases: in vivo
[1] = test system: Blumeria graminis f. sp. tritici (also known as Erysiphe graminis f. sp. tritici, the causal agent of wheat powdery mildew); assay: Test D: wheat powdery mildew, preventive spray on wheat seedlings, visual disease rating; details: wheat powdery mildew, preventive spray on wheat seedlings; asterisk: 40 ppm test suspension
Outline: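 Preventive test: seedlings sprayed to run-off and inoculated with powdery mildew spores one day later. Suspensions were made in 50/50 acetone/water with 250 ppm Trem 014 surfactant (200 ppm equals 800 g/ha). Visual ratings after 8 days at 20 °C give percent disease control versus controls.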

[2] = test system: Puccinia recondite f. sp. tritici (the causal agent of wheat leaf rust); assay: Test A: wheat leaf rust, preventive spray on wheat seedlings, visual disease rating; details: wheat leaf rust, preventive spray on wheat seedlings; asterisk: 40 ppm test suspension
Outline: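 This was a preventive test: Puccinia recondite f. sp. tritici inoculum was applied one day after compound spray to run-off. Test suspensions were made in 50/50 acetone/water with 250 ppm surfactant, at 200 ppm (800 g/ha equivalent) or 40 ppm. Visual ratings of % disease control relative to controls were made after 24 h of saturated humidity and 7 growth-chamber days, all at 20° C.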

[3] = test system: Septoria tritici (the causal agent of wheat leaf blotch); assay: Test B: wheat leaf blotch, preventive spray on wheat seedlings, visual disease rating; details: wheat leaf blotch, preventive spray on wheat seedlings; asterisk: 40 ppm test suspension
Outline: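 Preventive test: Septoria tritici spores applied one day after run-off spraying of seedlings (200 ppm equals 800 g/ha; some tests 40 ppm). After 48 h at 24 °C saturated atmosphere and 19 days at 20 °C, disease scored visually as % control relative to untreated plants.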

[4] = test system: Botrytis cinerea (the causal agent of tomato Botrytis); assay: Test C: tomato Botrytis, preventive spray on tomato seedlings, visual disease rating; details: tomato Botrytis, preventive spray on tomato seedlings; asterisk: 40 ppm test suspension
Outline: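 Preventive test: B. cinerea spore inoculation one day after tomato seedlings were sprayed to run-off with compound suspended in 50/50 acetone–water plus 250 ppm surfactant. Plants held 48 h at 20° C in saturated air, then 3 days at 24° C; visual ratings scored 100 (full control) to 0 versus controls; some entries used 40 ppm.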

COc1ccc(C(O)c2c(Br)nc(C)n2-c2ccc(F)cc2Br)c(F)c1 (stereo not shown) [compound 310]
Test D rating (100 = 100% disease control, 0 = no disease control relative to the controls) [1]: 56* %
Test A rating (100 = 100% disease control, 0 = no disease control relative to the controls) [2]: 100* %
Test B rating (100 = 100% disease control, 0 = no disease control relative to the controls) [3]: 100* %
Test C rating (100 = 100% disease control, 0 = no disease control relative to the controls) [4]: 100* %

Cc1ncc(C(O)c2ccc(C#N)cc2F)n1-c1ccc(F)cc1Br (stereo not shown) [compound 311]
Test D rating (100 = 100% disease control, 0 = no disease control relative to the controls) [1]: 0* %
Test A rating (100 = 100% disease control, 0 = no disease control relative to the controls) [2]: 9* %
Test B rating (100 = 100% disease control, 0 = no disease control relative to the controls) [3]: 5* %
Test C rating (100 = 100% disease control, 0 = no disease control relative to the controls) [4]: 0* %

COc1ccc(C(O)c2cnc(C)n2-c2ccc(F)cc2Br)c(Cl)c1 (stereo not shown) [compound 312]
Test D rating (100 = 100% disease control, 0 = no disease control relative to the controls) [1]: 0* %
Test A rating (100 = 100% disease control, 0 = no disease control relative to the controls) [2]: 28* %
Test B rating (100 = 100% disease control, 0 = no disease control relative to the controls) [3]: 12* %
Test C rating (100 = 100% disease control, 0 = no disease control relative to the controls) [4]: 0* %

Cc1nc(Cl)c(C(O)c2ccc(F)cc2Br)n1-c1ccc(F)cc1F (stereo not shown) [compound 313]
Test D rating (100 = 100% disease control, 0 = no disease control relative to the controls) [1]: 0* %
Test A rating (100 = 100% disease control, 0 = no disease control relative to the controls) [2]: 100* %
Test B rating (100 = 100% disease control, 0 = no disease control relative to the controls) [3]: 100* %
Test C rating (100 = 100% disease control, 0 = no disease control relative to the controls) [4]: 17* %

COc1ccc(C(O)c2c(Cl)nc(C)n2-c2ccc(F)cc2Br)c(F)c1 (stereo not shown) [compound 314]
Test D rating (100 = 100% disease control, 0 = no disease control relative to the controls) [1]: 47* %
Test A rating (100 = 100% disease control, 0 = no disease control relative to the controls) [2]: 100* %
Test B rating (100 = 100% disease control, 0 = no disease control relative to the controls) [3]: 100* %
Test C rating (100 = 100% disease control, 0 = no disease control relative to the controls) [4]: 99* %

Cc1cc(F)ccc1C(O)c1c(Cl)nc(C)n1-c1c(F)cc(F)cc1Br (stereo not shown) [compound 315]
Test D rating (100 = 100% disease control, 0 = no disease control relative to the controls) [1]: 96* %
Test A rating (100 = 100% disease control, 0 = no disease control relative to the controls) [2]: 99* %
Test B rating (100 = 100% disease control, 0 = no disease control relative to the controls) [3]: 100* %
Test C rating (100 = 100% disease control, 0 = no disease control relative to the controls) [4]: 96* %

Cc1nc(Cl)c(C(O)c2ccc(F)cc2F)n1-c1c(F)cccc1Br (stereo not shown) [compound 316]
Test D rating (100 = 100% disease control, 0 = no disease control relative to the controls) [1]: 95* %
Test A rating (100 = 100% disease control, 0 = no disease control relative to the controls) [2]: 100* %
Test B rating (100 = 100% disease control, 0 = no disease control relative to the controls) [3]: 100* %
Test C rating (100 = 100% disease control, 0 = no disease control relative to the controls) [4]: 99* %

Cc1cccc(Cl)c1-n1c(C)nc(Br)c1C(O)c1ccc(F)cc1F (stereo not shown) [compound 317]
Test D rating (100 = 100% disease control, 0 = no disease control relative to the controls) [1]: 56* %
Test A rating (100 = 100% disease control, 0 = no disease control relative to the controls) [2]: 100* %
Test B rating (100 = 100% disease control, 0 = no disease control relative to the controls) [3]: 89* %
Test C rating (100 = 100% disease control, 0 = no disease control relative to the controls) [4]: 96* %

COc1ccc(-n2c(Cl)nc(Cl)c2C(O)c2ccc(F)cc2Cl)c(F)c1 (stereo not shown) [compound 319]
Test D rating (100 = 100% disease control, 0 = no disease control relative to the controls) [1]: 0* %
Test A rating (100 = 100% disease control, 0 = no disease control relative to the controls) [2]: 100* %
Test B rating (100 = 100% disease control, 0 = no disease control relative to the controls) [3]: 100* %
Test C rating (100 = 100% disease control, 0 = no disease control relative to the controls) [4]: 99* %

Cc1cccc(Cl)c1-n1c(C)nc(Cl)c1C(O)c1ccc(F)cc1F (stereo not shown) [compound 320]
Test D rating (100 = 100% disease control, 0 = no disease control relative to the controls) [1]: 79* %
Test A rating (100 = 100% disease control, 0 = no disease control relative to the controls) [2]: 99* %
Test B rating (100 = 100% disease control, 0 = no disease control relative to the controls) [3]: 100* %
Test C rating (100 = 100% disease control, 0 = no disease control relative to the controls) [4]: 96* %

Cc1ncc(C(O)c2ccc(F)cc2F)n1-c1ccc(F)cc1Br (stereo not shown) [compound 321]
Test D rating (100 = 100% disease control, 0 = no disease control relative to the controls) [1]: 0* %
Test A rating (100 = 100% disease control, 0 = no disease control relative to the controls) [2]: 0* %
Test B rating (100 = 100% disease control, 0 = no disease control relative to the controls) [3]: 0* %
Test C rating (100 = 100% disease control, 0 = no disease control relative to the controls) [4]: 0* %

COc1cc(F)c(C(O)c2cnc(C)n2-c2ccc(F)cc2Br)c(F)c1 (stereo not shown) [compound 322]
Test D rating (100 = 100% disease control, 0 = no disease control relative to the controls) [1]: 0* %
Test A rating (100 = 100% disease control, 0 = no disease control relative to the controls) [2]: 28* %
Test B rating (100 = 100% disease control, 0 = no disease control relative to the controls) [3]: 2* %
Test C rating (100 = 100% disease control, 0 = no disease control relative to the controls) [4]: 0* %

COc1cc(F)c(C(O)c2c(Br)nc(C)n2-c2ccc(F)cc2Br)c(F)c1 (stereo not shown) [compound 323]
Test D rating (100 = 100% disease control, 0 = no disease control relative to the controls) [1]: 99* %
Test A rating (100 = 100% disease control, 0 = no disease control relative to the controls) [2]: 100* %
Test B rating (100 = 100% disease control, 0 = no disease control relative to the controls) [3]: 100* %
Test C rating (100 = 100% disease control, 0 = no disease control relative to the controls) [4]: 100* %

COc1ccc(C(O)c2c(Br)nc(C)n2-c2ccc(F)cc2Br)c(Cl)c1 (stereo not shown) [compound 324]
Test D rating (100 = 100% disease control, 0 = no disease control relative to the controls) [1]: 69* %
Test A rating (100 = 100% disease control, 0 = no disease control relative to the controls) [2]: 100* %
Test B rating (100 = 100% disease control, 0 = no disease control relative to the controls) [3]: 94* %
Test C rating (100 = 100% disease control, 0 = no disease control relative to the controls) [4]: 80* %

COc1cc(F)c(C(O)c2c(Cl)nc(C)n2-c2ccc(F)cc2Br)c(F)c1 (stereo not shown) [compound 325]
Test D rating (100 = 100% disease control, 0 = no disease control relative to the controls) [1]: 92* %
Test A rating (100 = 100% disease control, 0 = no disease control relative to the controls) [2]: 100* %
Test B rating (100 = 100% disease control, 0 = no disease control relative to the controls) [3]: 98* %
Test C rating (100 = 100% disease control, 0 = no disease control relative to the controls) [4]: 100* %

Cc1nc(Br)c(C(O)c2ccc(C#N)cc2F)n1-c1ccc(F)cc1Br (stereo not shown) [compound 326]
Test D rating (100 = 100% disease control, 0 = no disease control relative to the controls) [1]: 0* %
Test A rating (100 = 100% disease control, 0 = no disease control relative to the controls) [2]: 99* %
Test B rating (100 = 100% disease control, 0 = no disease control relative to the controls) [3]: 90* %
Test C rating (100 = 100% disease control, 0 = no disease control relative to the controls) [4]: 30* %

COc1ccc(-n2c(Cl)nc(Cl)c2C(O)c2c(F)cc(F)cc2F)c(F)c1 (stereo not shown) [compound 327]
Test D rating (100 = 100% disease control, 0 = no disease control relative to the controls) [1]: 29* %
Test A rating (100 = 100% disease control, 0 = no disease control relative to the controls) [2]: 100* %
Test B rating (100 = 100% disease control, 0 = no disease control relative to the controls) [3]: 100* %
Test C rating (100 = 100% disease control, 0 = no disease control relative to the controls) [4]: 100* %

COc1ccc(-n2c(Cl)nc(Cl)c2C(O)c2ccc(F)cc2F)c(F)c1 (stereo not shown) [compound 328]
Test D rating (100 = 100% disease control, 0 = no disease control relative to the controls) [1]: 64* %
Test A rating (100 = 100% disease control, 0 = no disease control relative to the controls) [2]: 100* %
Test B rating (100 = 100% disease control, 0 = no disease control relative to the controls) [3]: 100* %
Test C rating (100 = 100% disease control, 0 = no disease control relative to the controls) [4]: 100* %

Cc1nc(Cl)n(-c2c(F)cccc2Cl)c1C(O)c1ccc(F)cc1F (stereo not shown) [compound 332]
Test D rating (100 = 100% disease control, 0 = no disease control relative to the controls) [1]: 92* %
Test A rating (100 = 100% disease control, 0 = no disease control relative to the controls) [2]: 100* %
Test B rating (100 = 100% disease control, 0 = no disease control relative to the controls) [3]: 100* %
Test C rating (100 = 100% disease control, 0 = no disease control relative to the controls) [4]: 99* %

COc1ccc(C(O)c2c(Cl)nc(C)n2-c2ccc(F)cc2Br)c(Cl)c1 (stereo not shown) [compound 333]
Test D rating (100 = 100% disease control, 0 = no disease control relative to the controls) [1]: 86* %
Test A rating (100 = 100% disease control, 0 = no disease control relative to the controls) [2]: 95* %
Test B rating (100 = 100% disease control, 0 = no disease control relative to the controls) [3]: 72* %
Test C rating (100 = 100% disease control, 0 = no disease control relative to the controls) [4]: 99* %

Cc1nc(Br)c(C(O)c2ccc(F)cc2F)n1-c1ccc(F)cc1Br (stereo not shown) [compound 334]
Test D rating (100 = 100% disease control, 0 = no disease control relative to the controls) [1]: 64* %
Test A rating (100 = 100% disease control, 0 = no disease control relative to the controls) [2]: 99* %
Test B rating (100 = 100% disease control, 0 = no disease control relative to the controls) [3]: 100* %
Test C rating (100 = 100% disease control, 0 = no disease control relative to the controls) [4]: 99* %

Cc1cccc(Br)c1-n1c(C)nc(Br)c1C(O)c1ccc(F)cc1Cl (stereo not shown) [compound 335]
Test D rating (100 = 100% disease control, 0 = no disease control relative to the controls) [1]: 64* %
Test A rating (100 = 100% disease control, 0 = no disease control relative to the controls) [2]: 98* %
Test B rating (100 = 100% disease control, 0 = no disease control relative to the controls) [3]: 86* %
Test C rating (100 = 100% disease control, 0 = no disease control relative to the controls) [4]: 35* %
